Experiments:
RPMI 8226 = experiment: Incorporation of 3H-thymidine, RPMI 8226; format: cell-based; conditions: Homo sapiens, 96 hours incubation, then 6 hours 3H-thymidine, read-out: TdR IC50 RPMI 8226
ME 180 = experiment: Incorporation of 3H-thymidine, ME 180; format: cell-based; conditions: Homo sapiens, ME-180; 96 hours incubation, then 6 hours 3H-thymidine; read-out: TdR IC50 ME 180
AML-193 = experiment: Incorporation of 3H-thymidine, AML-193; conditions: Homo sapiens, read-out: TdR IC50 AML-193 (nM)

CC(/C=C/CC1(c2ccc3c(c2)C(C)(C)CCC3(C)C)CC1)=C\C(=O)O [Compound 101, (2E, 4E)-6-[1-(5,5,8,8-Tetramethyl-5,6,7,8-tetrahydronaphtha-len-2-yl)cyclopropanyl]-3-methyl hexadienoic acid]
IC50 (RPMI 8226): < 0.1 nM
IC50 (ME 180): 0.9 nM
IC50 (AML-193): < 0.1 nM

Source: patent US6005007A, “Retinoids, methods for their production and use” (priority 1997, dated 1999)
